Measured values: patent publication US10259808B2 (Genentech, Inc., priority 2015, dated 2019)

Molecular target: T1, RORc ligand binding domain (Homo sapiens, UniProt P51449)
T1 sequence (P51449 269-508 limits assumed): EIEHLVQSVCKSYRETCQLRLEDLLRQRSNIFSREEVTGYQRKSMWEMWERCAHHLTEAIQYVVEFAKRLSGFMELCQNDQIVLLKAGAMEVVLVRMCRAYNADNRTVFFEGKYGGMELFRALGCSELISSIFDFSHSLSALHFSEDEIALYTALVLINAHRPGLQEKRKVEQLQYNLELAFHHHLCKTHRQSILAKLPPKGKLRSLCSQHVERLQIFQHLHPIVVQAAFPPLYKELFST
Experiment: In vitro RORc ligand binding assay (25-[3H]hydroxycholesterol displacement)

SMILES	IC50 [µM]
C[C@H]1CC[C@H](c2ccccc2)S(=O)(=O)N1Cc1cc(F)c(C2(NC(=O)Cc3ccon3)COC2)cc1F [Example 94, N-[3-[2,5-difluoro-4-[[(3S,6R)-3-methyl-1,1-dioxo-6-phenyl-thiazinan-2-yl]methyl]phenyl]oxetan-3-yl]-2-isoxazol-3-yl-acetamide]	0.0179
Cc1cc(NC(=O)C2(c3ccc(CN4[C@@H](C)CC[C@H](c5ccccc5)S4(=O)=O)c(F)c3)CCOCC2)n(C)n1 (stereo in doubt) [Example 14, N-(2,5-dimethylpyrazol-3-yl)-4-[3-fluoro-4-[[(3S,6R)-3-methyl-1,1-dioxo-6-phenyl-thiazinan-2-yl]methyl]phenyl]tetrahydropyran-4-carboxamide]	0.0636
C[C@H]1CC[C@H](c2ccccc2)S(=O)(=O)N1Cc1cc(F)c([C@]2(c3c[nH]c(=O)[nH]3)C[C@](C)(O)C2)cc1F (racemic) [Example 185, 4-[1-[2,5-difluoro-4-[[rac-(3S,6R)-3-methyl-1,1-dioxo-6-phenyl-thiazinan-2-yl]methyl]phenyl]-3-hydroxy-3-methyl-cyclobutyl]-1,3-dihydroimidazol-2-one]	0.019
C[C@H]1CC[C@H](c2ccccc2)S(=O)(=O)N1Cc1ccc(C2(c3nnc(CO)o3)CCOCC2)cc1F [Example 44, [5-[4-[3-fluoro-4-[[(3S,6R)-3-methyl-1,1-dioxo-6-phenyl-thiazinan-2-yl]methyl]phenyl]tetrahydropyran-4-yl]-1,3,4-oxadiazol-2-yl]methanol]	0.102
C[C@H]1CC[C@H](c2ccccc2)S(=O)(=O)N1Cc1ccc(C2(NCc3ncnn3C)CCOCC2)cc1F [Example 55, 4-[3-fluoro-4-[[(3S,6R)-3-methyl-1,1-dioxo-6-phenyl-thiazinan-2-yl]methyl]phenyl]-N-[(2-methyl-1,2,4-triazol-3-yl)methyl]tetrahydropyran-4-amine]	0.0107
CCOC(=O)Cn1cnc(C2(c3cc(F)c(CN4[C@@H](C)CC[C@H](c5ccccc5)S4(=O)=O)cc3F)CCOCC2)n1 [Example 52, ethyl 2-[3-[4-[2,5-difluoro-4-[[(3S,6R)-3-methyl-1,1-dioxo-6-phenyl-thiazinan-2-yl]methyl]phenyl]tetrahydropyran-4-yl]-1,2,4-triazol-1-yl]acetate]	0.071
C[C@H]1CC[C@H](c2ccccc2)S(=O)(=O)N1Cc1cc(F)c([C@]2([C@H]3CNC(=O)O3)C[C@](C)(O)C2)cc1F (racemic) [Example 172, rac-(5S)-5-[1-[2,5-difluoro-4-[[rac-(3S,6R)-3-methyl-1,1-dioxo-6-phenyl-thiazinan-2-yl]methyl]phenyl]-3-hydroxy-3-methyl-cyclobutyl]oxazolidin-2-one]	0.0519
C[C@H]1CC[C@H](c2ccccc2)S(=O)(=O)N1Cc1ccc(C2(C(=O)NCCN3CCC(O)CC3)CCOCC2)cc1F [Example 5]	1.86
C[C@H]1CC[C@H](c2ccccc2)S(=O)(=O)N1Cc1cc(F)c(C2(NCc3ccon3)COC2)cc1F [Example 103, 3-[2,5-difluoro-4-[[(3S,6R)-3-methyl-1,1-dioxo-6-phenyl-thiazinan-2-yl]methyl]phenyl]-N-(isoxazol-3-ylmethyl)oxetan-3-amine]	0.0015
C[C@H]1CC[C@H](c2ccccc2)S(=O)(=O)N1Cc1ccc(C2(NCc3ncco3)CCOCC2)cc1F [Example 71, 4-[3-fluoro-4-[[(3S,6R)-3-methyl-1,1-dioxo-6-phenyl-thiazinan-2-yl]methyl]phenyl]-N-(oxazol-2-ylmethyl)tetrahydropyran-4-amine]	0.0025
C[C@H]1CC[C@H](c2ccccc2)S(=O)(=O)N1Cc1cc(F)c(C2(C(=O)N3CC[C@@H](O)C3)CCOCC2)cc1F [Example 32, [4-[2,5-difluoro-4-[[(3S,6R)-3-methyl-1,1-dioxo-6-phenyl-thiazinan-2-yl]methyl]phenyl]tetrahydropyran-4-yl]-[(3R)-3-hydroxypyrrolidin-1-yl]methanone]	0.079
C[C@H]1CC[C@H](c2ccccc2)S(=O)(=O)N1Cc1cc(F)c([C@]2(c3nn(C)c(=O)o3)C[C@@H](O)C2)cc1F [Example 146, cis 5-[1-[2,5-difluoro-4-[[(3S,6R)-3-methyl-1,1-dioxo-6-phenyl-thiazinan-2-yl]methyl]phenyl]-3-hydroxy-cyclobutyl]-3-methyl-1,3,4-oxadiazol-2-one]	0.0176
C[C@H]1CC[C@H](c2ccccc2)S(=O)(=O)N1Cc1cc(F)c(C2(NCc3cc[nH]n3)COC2)cc1F [Example 84, 3-[2,5-difluoro-4-[[(3S,6R)-3-methyl-1,1-dioxo-6-phenyl-thiazinan-2-yl]methyl]phenyl]-N-(1H-pyrazol-3-ylmethyl)oxetan-3-amine]	0.0057
C[C@H]1CC[C@H](c2ccccc2)S(=O)(=O)N1Cc1cc(F)c(C2(NC(=O)c3ccon3)COC2)cc1F [Example 97, N-[3-[2,5-difluoro-4-[[(3S,6R)-3-methyl-1,1-dioxo-6-phenyl-thiazinan-2-yl]methyl]phenyl]oxetan-3-yl]isoxazole-3-carboxamide]	0.0224
C[C@H]1CC[C@H](c2ccccc2)S(=O)(=O)N1Cc1ccc(C2(c3nnco3)CCOCC2)cc1F [Example 42, (3S,6R)-2-[[2-fluoro-4-[4-(1,3,4-oxadiazol-2-yl)tetrahydropyran-4-yl]phenyl]methyl]-3-methyl-6-phenyl-thiazinane 1,1-dioxide]	0.0546

The remaining compounds from weak to strong by IC50, led by results:

IC50 [µM]	SMILES
0.201	Cc1nn(C)cc1CNC1(c2cc(F)c(CN3[C@@H](C)CC[C@H](c4ccccc4)S3(=O)=O)cc2F)COC1 [Example 135, 3-[2,5-difluoro-4-[[(3S,6R)-3-methyl-1,1-dioxo-6-phenyl-thiazinan-2-yl]methyl]phenyl]-N-[(1,3-dimethylpyrazol-4-yl)methyl]oxetan-3-amine]
0.112	Cc1cncc(C(=O)NC2(c3cc(F)c(CN4[C@@H](C)CC[C@H](c5ccccc5)S4(=O)=O)cc3F)COC2)n1 [Example 109, N-[3-[2,5-difluoro-4-[[(3S,6R)-3-methyl-1,1-dioxo-6-phenyl-thiazinan-2-yl]methyl]phenyl]oxetan-3-yl]-6-methyl-pyrazine-2-carboxamide]
0.0894	C[C@H]1CC[C@H](c2ccccc2)S(=O)(=O)N1Cc1cc(F)c(C2(NCc3ccnn3C)COC2)cc1F [Example 137, 3-[2,5-difluoro-4-[[(3S,6R)-3-methyl-1,1-dioxo-6-phenyl-thiazinan-2-yl]methyl]phenyl]-N-[(2-methylpyrazol-3-yl)methyl]oxetan-3-amine]
0.0694	C[C@H]1CC[C@H](c2ccccc2)S(=O)(=O)N1Cc1cc(F)c(C2(NCc3cnn(C)c3)COC2)cc1F [Example 138, 3-[2,5-difluoro-4-[[(3S,6R)-3-methyl-1,1-dioxo-6-phenyl-thiazinan-2-yl]methyl]phenyl]-N-[(1-methylpyrazol-4-yl)methyl]oxetan-3-amine]
0.0503	C[C@H]1CC[C@H](c2ccccc2)S(=O)(=O)N1Cc1cc(F)c([C@]2([C@H](O)Cc3ncn[nH]3)C[C@](C)(O)C2)cc1F (racemic) [Example 171, 3-[2,5-difluoro-4-[[rac-(3S,6R)-3-methyl-1,1-dioxo-6-phenyl-thiazinan-2-yl]methyl]phenyl]-1-methyl-3-[rac-(1R)-1-hydroxy-2-(1H-1,2,4-triazol-5-yl)ethyl]cyclobutanol]
0.0205	C[C@H]1CC[C@H](c2ccccc2)S(=O)(=O)N1Cc1ccc(C2(NCc3cnc[nH]3)CCOCC2)cc1F [Example 62, 4-[3-fluoro-4-[[(3S,6R)-3-methyl-1,1-dioxo-6-phenyl-thiazinan-2-yl]methyl]phenyl]-N-(1H-imidazol-5-ylmethyl)tetrahydropyran-4-amine]
0.0128	C[C@H]1CC[C@H](c2ccccc2)S(=O)(=O)N1Cc1cc(F)c(C2(c3nc(CO)co3)CCOCC2)cc1F [Example 74, [2-[4-[2,5-difluoro-4-[[(3S,6R)-3-methyl-1,1-dioxo-6-phenyl-thiazinan-2-yl]methyl]phenyl]tetrahydropyran-4-yl]oxazol-4-yl]methanol]
0.0123	Cc1cc(N)n(C(=O)C2(c3ccc(CN4[C@@H](C)CC[C@H](c5ccccc5)S4(=O)=O)c(F)c3)CCOCC2)n1 [Example 19]
0.0094	C[C@H]1CC[C@H](c2ccccc2)S(=O)(=O)N1Cc1cc(F)c(C2(c3n[nH]c(=O)o3)CCC2)cc1F [Example 144, 5-[1-[2,5-difluoro-4-[[(3S,6R)-3-methyl-1,1-dioxo-6-phenyl-thiazinan-2-yl]methyl]phenyl]cyclobutyl]-3H-1,3,4-oxadiazol-2-one]
0.0082	C[C@H]1CC[C@H](c2ccccc2)S(=O)(=O)N1Cc1cc(F)c(C2(NCc3ncco3)COC2)cc1F [Example 88, 3-[2,5-difluoro-4-[[(3S,6R)-3-methyl-1,1-dioxo-6-phenyl-thiazinan-2-yl]methyl]phenyl]-N-(oxazol-2-ylmethyl)oxetan-3-amine]
0.0037	C[C@H]1CC[C@H](c2ccccc2)S(=O)(=O)N1Cc1cc(F)c(C2(NCc3ncco3)CCOCC2)cc1F [Example 83, 4-[2,5-difluoro-4-[[(3S,6R)-3-methyl-1,1-dioxo-6-phenyl-thiazinan-2-yl]methyl]phenyl]-N-(oxazol-2-ylmethyl)tetrahydropyran-4-amine]
0.0032	C[C@H]1CC[C@H](c2ccccc2)S(=O)(=O)N1Cc1cc(F)c([C@]2(c3c[nH]c(=O)o3)C[C@](C)(O)C2)cc1F [Example 158, 5-[1-[2,5-difluoro-4-[[(3S,6R)-3-methyl-1,1-dioxo-6-phenyl-thiazinan-2-yl]methyl]phenyl]-3-hydroxy-3-methyl-cyclobutyl]-3H-oxazol-2-one]
0.0028	C[C@H]1CC[C@H](c2ccccc2)S(=O)(=O)N1Cc1cc(F)c([C@]2(c3cn(C)c(=O)o3)C[C@](C)(O)C2)cc1F [Example 159, 5-[1-[2,5-difluoro-4-[[(3S,6R)-3-methyl-1,1-dioxo-6-phenyl-thiazinan-2-yl]methyl]phenyl]-3-hydroxy-3-methyl-cyclobutyl]-3-methyl-oxazol-2-one]
